Assay results reported in ChEMBL document CHEMBL1909046, “DrugMatrix in vitro pharmacology data”.

Legend:
[1] = biological target: T1, Neuropeptide Y receptor type 2 (Homo sapiens, UniProt P49146); type: cell membranes, Membrane; conditions: kan-ts; further: in other assays of this panel Not Active means under 50% inhibition at 10 µM
T1 sequence (P49146 whole entry): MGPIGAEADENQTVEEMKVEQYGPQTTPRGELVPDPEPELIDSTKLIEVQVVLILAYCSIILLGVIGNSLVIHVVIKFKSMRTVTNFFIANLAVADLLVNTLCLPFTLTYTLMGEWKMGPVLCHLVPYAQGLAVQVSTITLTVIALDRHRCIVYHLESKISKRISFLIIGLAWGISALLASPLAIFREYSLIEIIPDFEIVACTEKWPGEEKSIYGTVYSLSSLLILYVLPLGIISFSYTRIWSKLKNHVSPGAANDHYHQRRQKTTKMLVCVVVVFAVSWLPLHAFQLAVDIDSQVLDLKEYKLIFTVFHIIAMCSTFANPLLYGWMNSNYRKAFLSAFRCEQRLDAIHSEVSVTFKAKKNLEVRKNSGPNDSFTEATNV

[2] = DRUGMATRIX: Glutamate, Kainate radioligand binding (ligand: [3H] Kainic acid); type: cell membranes, Rattus norvegicus, Wistar, Brain, Membrane; conditions: Not Active = under 50% inhibition at 10 µM
[3] = DRUGMATRIX: Calcium Channel Type L, Dihydropyridine radioligand binding (ligand: [3H] Nitrendipine); type: cell membranes, Rattus norvegicus, Wistar, Cerebral cortex, Membrane; conditions: Not Active = under 50% inhibition at 10 µM
[4] = biological target: T2, C-C chemokine receptor type 4 (Homo sapiens, UniProt P51679); type: cell membranes, Membrane; conditions: chem-1; further: in other assays of this panel Not Active means under 50% inhibition at 10 µM
T2 sequence (P51679 whole entry): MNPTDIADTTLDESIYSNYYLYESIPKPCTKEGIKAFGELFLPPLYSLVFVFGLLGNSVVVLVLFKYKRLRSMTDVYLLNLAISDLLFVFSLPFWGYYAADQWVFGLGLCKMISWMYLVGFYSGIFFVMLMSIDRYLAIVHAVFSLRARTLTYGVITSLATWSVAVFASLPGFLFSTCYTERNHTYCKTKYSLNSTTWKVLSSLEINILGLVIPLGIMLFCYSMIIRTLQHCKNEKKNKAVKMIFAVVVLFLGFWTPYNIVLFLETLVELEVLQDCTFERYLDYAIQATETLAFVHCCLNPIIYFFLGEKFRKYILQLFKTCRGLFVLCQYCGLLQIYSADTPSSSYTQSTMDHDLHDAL

[5] = biological target: Melanocortin receptor 3 (Homo sapiens, UniProt P41968); type: cell membranes, Membrane; conditions: hek293; further: in other assays of this panel Not Active means under 50% inhibition at 10 µM
Chain of Melanocortin receptor 3 (P41968 whole entry): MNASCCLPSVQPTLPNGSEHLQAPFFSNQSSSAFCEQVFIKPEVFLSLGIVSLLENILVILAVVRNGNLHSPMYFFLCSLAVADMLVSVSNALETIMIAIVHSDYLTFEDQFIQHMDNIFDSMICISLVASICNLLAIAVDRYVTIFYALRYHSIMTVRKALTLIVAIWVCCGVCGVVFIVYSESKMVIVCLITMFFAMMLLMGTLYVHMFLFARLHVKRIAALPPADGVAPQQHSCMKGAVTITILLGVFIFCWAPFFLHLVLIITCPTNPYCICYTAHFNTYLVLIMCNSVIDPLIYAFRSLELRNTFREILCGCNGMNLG

[6] = biological target: Cytochrome P450 2D6 (Homo sapiens, UniProt P10635); conditions: bti-tn-5b1-4; further: in other assays of this panel Not Active means under 50% inhibition at 10 µM
Chain of Cytochrome P450 2D6 (P10635 whole entry): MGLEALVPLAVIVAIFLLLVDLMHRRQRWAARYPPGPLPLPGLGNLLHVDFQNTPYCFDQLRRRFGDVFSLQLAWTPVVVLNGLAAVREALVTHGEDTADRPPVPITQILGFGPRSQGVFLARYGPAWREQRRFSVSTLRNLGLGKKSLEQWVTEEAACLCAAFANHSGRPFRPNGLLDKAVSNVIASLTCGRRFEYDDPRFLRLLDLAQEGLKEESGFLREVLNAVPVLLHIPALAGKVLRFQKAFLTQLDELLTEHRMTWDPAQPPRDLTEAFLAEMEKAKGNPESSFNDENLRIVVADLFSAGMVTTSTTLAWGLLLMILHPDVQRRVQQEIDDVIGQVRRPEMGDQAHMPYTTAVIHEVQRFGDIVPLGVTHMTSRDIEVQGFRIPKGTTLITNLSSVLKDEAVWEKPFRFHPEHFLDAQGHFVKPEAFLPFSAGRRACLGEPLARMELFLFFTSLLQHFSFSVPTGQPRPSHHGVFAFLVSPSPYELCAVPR

[7] = DRUGMATRIX: Leukotriene, BLT (LTB4) radioligand binding (ligand: [3H]LTB4); type: cell membranes, Membrane; conditions: u-937; Not Active = under 50% inhibition at 10 µM
[8] = biological target: Substance-P receptor (Homo sapiens, UniProt P25103); type: cell membranes, Membrane; conditions: cho; further: in other assays of this panel Not Active means under 50% inhibition at 10 µM
Chain of Substance-P receptor (P25103 whole entry): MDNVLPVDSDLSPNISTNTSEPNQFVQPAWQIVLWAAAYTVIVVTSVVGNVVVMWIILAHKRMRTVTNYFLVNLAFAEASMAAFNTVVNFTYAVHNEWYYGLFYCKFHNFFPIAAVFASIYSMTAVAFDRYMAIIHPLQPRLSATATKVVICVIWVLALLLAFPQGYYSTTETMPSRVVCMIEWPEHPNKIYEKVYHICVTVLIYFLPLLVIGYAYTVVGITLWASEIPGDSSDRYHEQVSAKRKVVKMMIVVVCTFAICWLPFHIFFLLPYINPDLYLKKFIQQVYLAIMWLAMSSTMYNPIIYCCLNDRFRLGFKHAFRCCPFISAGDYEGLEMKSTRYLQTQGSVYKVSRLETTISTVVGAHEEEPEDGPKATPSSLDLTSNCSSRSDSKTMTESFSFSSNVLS

[9] = biological target: T3, Cysteinyl leukotriene receptor 1 (Homo sapiens, UniProt Q9Y271); type: cell membranes, CHO-K1, Membrane; conditions: cho-k1; further: in other assays of this panel Not Active means under 50% inhibition at 10 µM
T3 sequence (Q9Y271 whole entry): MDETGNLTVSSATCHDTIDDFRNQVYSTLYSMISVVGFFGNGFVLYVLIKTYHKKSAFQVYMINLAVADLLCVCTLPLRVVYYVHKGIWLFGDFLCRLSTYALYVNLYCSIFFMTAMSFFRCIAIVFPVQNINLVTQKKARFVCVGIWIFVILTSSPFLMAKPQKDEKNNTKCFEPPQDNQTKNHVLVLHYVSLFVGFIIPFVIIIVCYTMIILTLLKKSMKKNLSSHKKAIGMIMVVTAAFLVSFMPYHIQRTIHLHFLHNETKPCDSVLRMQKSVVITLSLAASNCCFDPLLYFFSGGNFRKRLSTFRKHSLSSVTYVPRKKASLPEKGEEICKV

[10] = biological target: Estrogen receptor beta (Homo sapiens, UniProt Q92731); conditions: sf9; further: in other assays of this panel Not Active means under 50% inhibition at 10 µM
Chain of Estrogen receptor beta (Q92731 whole entry): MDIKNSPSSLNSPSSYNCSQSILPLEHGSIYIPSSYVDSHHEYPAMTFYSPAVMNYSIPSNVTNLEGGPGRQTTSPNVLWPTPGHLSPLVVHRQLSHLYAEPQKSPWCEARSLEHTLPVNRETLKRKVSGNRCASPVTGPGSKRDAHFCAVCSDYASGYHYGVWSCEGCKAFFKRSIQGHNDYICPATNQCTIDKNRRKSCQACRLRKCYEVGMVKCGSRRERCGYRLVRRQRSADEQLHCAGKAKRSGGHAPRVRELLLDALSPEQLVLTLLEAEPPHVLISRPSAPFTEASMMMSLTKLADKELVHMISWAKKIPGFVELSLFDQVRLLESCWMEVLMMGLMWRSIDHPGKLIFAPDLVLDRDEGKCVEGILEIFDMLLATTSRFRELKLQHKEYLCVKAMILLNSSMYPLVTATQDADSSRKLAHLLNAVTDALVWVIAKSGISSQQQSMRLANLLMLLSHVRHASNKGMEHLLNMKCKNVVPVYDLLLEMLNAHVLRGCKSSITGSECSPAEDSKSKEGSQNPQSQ

[11] = DRUGMATRIX: Glutamate, NMDA, Phencyclidine radioligand binding (ligand: [3H] TCP); type: cell membranes, Rattus norvegicus, Wistar, Cerebral cortex, Membrane; conditions: Not Active = under 50% inhibition at 10 µM

SMILES | IC50 [1] | IC50 [2] | Ki [2] | IC50 [3] | Ki [3] | IC50 [4] | IC50 [5] | IC50 [6] | Ki [6] | IC50 [7] | Ki [7] | IC50 [8] | IC50 [9] | IC50 [10] | IC50 [11] | Ki [11] | IC50 ([3]; read-out: IC50) | Ki ([3]; read-out: Ki)
COCCCOc1ccnc(C[S+]([O-])c2nc3ccccc3[nH]2)c1C (stereo unspecified) [RABEPRAZOLE] | Not Active | Not Active | Not Active | Not Active | Not Active | Not Active | Not Active | Not Active | Not Active | Not Active | Not Active | Not Active | Not Active | Not Active | Not Active | Not Active |  | 
CO[C@H]1/C=C/O[C@@]2(C)Oc3c(C)c(O)c4c(c3C2=O)C2=NC3(CCN(CC(C)C)CC3)NC2=C(NC(=O)/C(C)=C\C=C\[C@H](C)[C@H](O)[C@@H](C)[C@@H](O)[C@@H](C)[C@H](OC(C)=O)[C@@H]1C)C4=O [RIFABUTIN] | Not Active | Not Active | Not Active | Not Active | Not Active | Not Active | Not Active | Not Active | Not Active | Not Active | Not Active | Not Active | Not Active | Not Active | Not Active | Not Active |  | 
CNC(=C[N+](=O)[O-])NCCSCc1ccc(CN(C)C)o1 [RANITIDINE] | Not Active | Not Active | Not Active | Not Active | Not Active | Not Active | Not Active | Not Active | Not Active | Not Active | Not Active | Not Active | Not Active | Not Active | Not Active | Not Active |  | 
CC1=C(CC(=O)O)c2cc(F)ccc2/C1=C\c1ccc([S+](C)[O-])cc1 (stereo unspecified) | Not Active | Not Active | Not Active | Not Active | Not Active | Not Active | Not Active | Not Active | Not Active | Not Active | Not Active | Not Active | Not Active | Not Active | Not Active | Not Active |  | 
CC(C)(C)c1ccc(C(O)CCCN2CCC(C(O)(c3ccccc3)c3ccccc3)CC2)cc1 (stereo unspecified) [TERFENADINE] | Not Active | Not Active | Not Active |  |  | Not Active | Not Active | Not Active | Not Active | Not Active | Not Active | Not Active | Not Active | Not Active | Not Active | Not Active | 779 nM | 501 nM
C[C@@H](N)[C@H]1CC[C@H](C(=O)Nc2ccncc2)CC1 [Y-27632] | Not Active | Not Active | Not Active | Not Active | Not Active | Not Active | Not Active | Not Active | Not Active | Not Active | Not Active | Not Active | Not Active | Not Active | Not Active | Not Active |  | 
